Experimental data taken from US4061748A, “7-(α-(4 -Hydroxy-1,5-naphthyridine-3-carbonamido)-α-phenylacetamido) cephalosporin derivatives” (Sumitomo Chemical Company, Limited, priority 1975, dated 1977).
In brackets after ≈: the same amount, converted by molar mass.

Columns and labels:
[1] = tested on: Pseudomonas aeruginosa T; experiment: Median protective dose against intraperitoneal infection in mice; format: in vivo, Pseudomonas aeruginosa; male ICR-SLC strain mice; conditions: sc, two subcutaneous treatments, 1 and 4 hours after infection, read-out: PD50
Description: (§1) The relative activities of the compounds of the present invention, Compound (A) and Compound (B) against various intraperitoneal infections in mice evaluated by mean median protective doses (subcutaneously administered) are shown in Table 3.
(§2) For each test, eight male ICR-SLC strain mice were used at each dose

[2] = tested on: Enterobacter aerogenes No. 75; experiment: as above; format: in vivo, Enterobacter aerogenes; male ICR-SLC strain mice; conditions: Klebsiella aerogenes, sc; Enterobacter aerogenes No. 75, intraperitoneal infection; two subcutaneous treatments, 1 and 4 hours after infection; read-out: PD50
Description: as §1, §2

[3] = tested on: Pseudomonas aeruginosa T; experiment: Minimum inhibitory concentration, nutrient broth dilution method; format: cell-based
Experimental: (§3) The minimum inhibitory concentrations obtained with the example compounds, Compound (A) and Compound (B), against the following organisms representing 6 genera are shown in Table 1.
(§4) MIC was determined by the nutrient broth dilution method.

[4] = tested on: Proteus mirabilis GN 2425; experiment: as above; format: cell-based; conditions: GN2425
Experimental: as §3, §4

[5] = tested on: Enterobacter aerogenes No. 75; experiment: as above; format: cell-based; conditions: Klebsiella aerogenes
Experimental: as §3, §4

[6] = tested on: Escherichia coli NIHJ; experiment: as above; format: cell-based
Experimental: as §3, §4

[7] = tested on: Klebsiella pneumoniae PCI 602; experiment: as above; format: cell-based; conditions: PCI602
Experimental: as §3, §4

[8] = tested on: Serratia No. 72; experiment: as above; format: cell-based
Experimental: as §3, §4

[9] = tested on: Serratia No. 75; experiment: Median protective dose against intraperitoneal infection in mice; format: in vivo, Serratia; male ICR-SLC strain mice; conditions: sc; Serratia No. 75, intraperitoneal infection; two subcutaneous treatments, 1 and 4 hours after infection; read-out: PD50
Description: as §1, §2

[10] = tested on: Escherichia coli No. 37; experiment: as above; format: in vivo, Escherichia coli; male ICR-SLC strain mice; conditions: sc; Escherichia coli No. 37, intraperitoneal infection; two subcutaneous treatments, 1 and 4 hours after infection; read-out: PD50
Description: as §1, §2

[11] = tested on: Escherichia coli No. 37; experiment: Minimum inhibitory concentration, nutrient broth dilution method (Table 3); format: cell-based
Experimental: as §4

[12] = tested on: Serratia No. 75; experiment: as above; format: cell-based
Experimental: as §4

[13] = Antibiotic serum concentrations in mice following subcutaneous administration (disc method bioassay); format: in vivo, ICR-SLC strain mice; conditions: mouse, sc, 50 mg/kg; for Cmax: read-out: Peak concentration
Experimental: The antibiotic serum concentrations of the six cephalosporins following subcutaneous administration at 50 mg/kg to ICR-SLC strain mice are shown in Table 2.
The bioassay was carried out according to the disc method using
Pseudomonas aeruginosa.

Compound: O=C(O)C1=C(CSc2cnn[nH]2)CSC2C(NC(=O)[C@H](NC(=O)c3cnc4cccnc4c3O)c3ccccc3)C(=O)N12 (stereo partly drawn) [Example 4, 7-[d-α-(4-hydroxy-1,5-naphthyridine-3-carboxyamido)-α-phenylacetamido]-3-(1,2,3-triazole-5-yl)thiomethyl-3-cephem-4-carboxylic acid]
- ED50 [1]: 30 mg/kg
- ED50 [2]: 30 mg/kg
- MIC [3]: 12.5 µg/mL (≈ 20.2 µM)
- MIC [4]: 25 µg/mL (≈ 40.4 µM)
- MIC [5]: 3.13 µg/mL (≈ 5.06 µM)
- MIC [6]: 1.56 µg/mL (≈ 2.52 µM)
- MIC [7]: 1.56 µg/mL (≈ 2.52 µM)
- MIC [8]: 25 µg/mL (≈ 40.4 µM)
- ED50 [9]: 30 mg/kg
- ED50 [10]: 45 mg/kg
- MIC [11]: 6.25 µg/mL (≈ 10.1 µM)
- MIC [12]: 12.5 µg/mL (≈ 20.2 µM)
- half-life [13]: 30 min
- Cmax [13]: 26000 ng/mL

Compound: CC(=O)OCC1=C(C(=O)O)N2C(=O)C(NC(=O)[C@H](NC(=O)c3cnccc3O)c3ccccc3)C2SC1 (stereo partly drawn) [Compound (B), sodium 7-[D-α-(4-hydroxypyridine-3-carboxyamino)-α-phenylacetamido] cephalosporanate, reference compound]
- ED50 [1]: 92 mg/kg
- ED50 [2]: 170 mg/kg
- MIC [3]: 25 µg/mL
- MIC [4]: 50 µg/mL
- MIC [5]: 25 µg/mL
- MIC [6]: 12.5 µg/mL
- MIC [7]: 12.5 µg/mL
- MIC [8]: > 200 µg/mL
- ED50 [9]: > 150 mg/kg
- ED50 [10]: 170 mg/kg
- MIC [11]: 25 µg/mL
- MIC [12]: > 200 µg/mL
- half-life [13]: 30 min
- Cmax [13]: 26000 ng/mL

Compound: CC(=O)OCC1=C(C(=O)O)N2C(=O)C(NC(=O)[C@H](NC(=O)c3cnc4cccnc4c3O)c3ccccc3)C2SC1 (stereo partly drawn) [Example 1, 7-[D-α-(4-Hydroxy-1,5-naphthyridine-3-carboxyamido)-α-phenylacetamido] cephalosporanic acid]
- ED50 [1]: 18 mg/kg
- ED50 [2]: 50 mg/kg
- MIC [3]: 6.25 µg/mL (≈ 10.8 µM)
- MIC [4]: 12.5 µg/mL (≈ 21.6 µM)
- MIC [5]: 6.25 µg/mL (≈ 10.8 µM)
- MIC [6]: 3.13 µg/mL (≈ 5.42 µM)
- MIC [7]: 1.56 µg/mL (≈ 2.7 µM)
- MIC [8]: 50 µg/mL (≈ 86.6 µM)
- ED50 [9]: 65 mg/kg
- ED50 [10]: 50 mg/kg
- MIC [11]: 6.25 µg/mL (≈ 10.8 µM)
- MIC [12]: 50 µg/mL (≈ 86.6 µM)
- half-life [13]: 25 min
- Cmax [13]: 44000 ng/mL

Compound: CC(=O)OCC1=C(C(=O)O)N2C(=O)C(NC(=O)[C@H](NC(=O)c3cnc4ccccc4c3O)c3ccccc3)C2SC1 (stereo partly drawn) [Compound (A), sodium 7-[D-α-(4-hydroxyquinoline-3-carboxyamino)-α-phenylacetamido] cephalosporanate, reference compound]
- ED50 [1]: > 100 mg/kg
- ED50 [2]: 200 mg/kg
- MIC [3]: 12.5 µg/mL
- MIC [4]: 25 µg/mL
- MIC [5]: 25 µg/mL
- MIC [6]: 6.25 µg/mL
- MIC [7]: 0.78 µg/mL
- MIC [8]: 100 µg/mL
- ED50 [9]: > 150 mg/kg
- ED50 [10]: > 200 mg/kg
- MIC [11]: 12.5 µg/mL
- MIC [12]: 100 µg/mL
- Cmax [13]: < 900 ng/mL

Compound: Cn1nnnc1SCC1=C(C(=O)O)N2C(=O)C(NC(=O)[C@H](NC(=O)c3cnc4cccnc4c3O)c3ccccc3)C2SC1 (some centres unmarked) [Example 3]
- ED50 [1]: 28 mg/kg
- ED50 [2]: 25 mg/kg
- MIC [3]: 12.5 µg/mL (≈ 19.7 µM)
- MIC [4]: 12.5 µg/mL (≈ 19.7 µM)
- MIC [5]: 3.13 µg/mL (≈ 4.94 µM)
- MIC [6]: 0.78 µg/mL (≈ 1.23 µM)
- MIC [7]: 0.39 µg/mL (≈ 0.615 µM)
- MIC [8]: 12.5 µg/mL (≈ 19.7 µM)
- ED50 [9]: 25 mg/kg
- ED50 [10]: 28 mg/kg
- MIC [11]: 3.13 µg/mL (≈ 4.94 µM)
- MIC [12]: 6.25 µg/mL (≈ 9.86 µM)
- half-life [13]: 25 min
- Cmax [13]: 24000 ng/mL

Compound: Cc1nnc(SCC2=C(C(=O)O)N3C(=O)C(NC(=O)[C@H](NC(=O)c4cnc5cccnc5c4O)c4ccccc4)C3SC2)s1 (stereo partly drawn) [Example 2, 7-[D-α-(4-Hydroxy-1,5-naphthyridine-3-carboxyamido)-α-phenylacetamido]-3-(2-methyl-1,3,4-thiadiazole-5-yl)thiomethyl-3-cephem-4-carboxylicacid]
- ED50 [1]: 23 mg/kg
- ED50 [2]: 28 mg/kg
- MIC [3]: 6.25 µg/mL (≈ 9.62 µM)
- MIC [4]: 12.5 µg/mL (≈ 19.2 µM)
- MIC [5]: 3.13 µg/mL (≈ 4.82 µM)
- MIC [6]: 1.56 µg/mL (≈ 2.4 µM)
- MIC [7]: 0.78 µg/mL (≈ 1.2 µM)
- MIC [8]: 12.5 µg/mL (≈ 19.2 µM)
- ED50 [9]: 30 mg/kg
- ED50 [10]: 41 mg/kg
- MIC [11]: 6.25 µg/mL (≈ 9.62 µM)
- MIC [12]: 12.5 µg/mL (≈ 19.2 µM)
- half-life [13]: 35 min
- Cmax [13]: 38000 ng/mL
